Results taken from US7456288B2, “Heterocyclic compounds and methods of making and using thereof” (Reddy US Therapeutics, Inc., priority 2003, dated 2008).
Blank lines part the entries; values can stand above or below the compound they belong to.

Columns and labels:
IL-6 = assay: Glycated albumin-stimulated endothelial cell production of cytokine IL-6 (ELISA); assay type: cell-based; settings: read-out: % of inhibition of proinflammatory cytokine IL-6
Source text: The effectiveness of the compounds of the present invention in inhibiting glycated protein- and AGE-induced inflammation can be determined using the assays described herein and in U.S. Provisional Patent Application Ser. No. 60/259,306, which is incorporated by reference in herein its entirety. Such assays comprise measurement of the specific activity of biological components involved in a known cellular response. The assays provide a measurable response in which the activity of the compounds is determined. One aspect of the present invention comprises measurement of the effects of compounds on an inflammatory response by cells to the presence of a stimulating agent. […] The amount of cytokines produced is determined by measurement protocols known to those skilled in the art. The compounds of the present invention are then added to the assay and the production of cytokines is measured. From the comparison of the assay without the compound with the assay with the compound, the biological effect of the compound can be determined. […]
Assays comprise endothelial cells that are stimulated in an inflammatory response by the presence of the glycated protein, glycated human serum albumin. […] Preferably, although not required, the amount of cytokine produced is determined using immunological methods, such as ELISA assays. […]

MCP-1 = assay: Glycated albumin-stimulated endothelial cell production of cytokine MCP-1 (ELISA); assay type: cell-based; settings: read-out: % of inhibition of proinflammatory cytokine MCP-1; for inhibition at 5 µM: concentration 5 μM
Source text: The effectiveness of the compounds of the present invention in inhibiting glycated protein- and AGE-induced inflammation can be determined using the assays described herein and in U.S. Provisional Patent Application Ser. No. 60/259,306, which is incorporated by reference in herein its entirety. Such assays comprise measurement of the specific activity of biological components involved in a known cellular response. The assays provide a measurable response in which the activity of the compounds is determined. One aspect of the present invention comprises measurement of the effects of compounds on an inflammatory response by cells to the presence of a stimulating agent. Yet another aspect of the present invention includes an assay comprising endothelial cells that are stimulated by the addition of a glycated protein, the stimulating agent. The endothelial cells respond by producing specific cytokines. The amount of cytokines produced is determined by measurement protocols known to those skilled in the art. The compounds of the present invention are then added to the assay and the production of cytokines is measured. From the comparison of the assay without the compound with the assay with the compound, the biological effect of the compound can be determined. The compound may have an inhibitory effect, a stimulatory effect, or no effect at all. Compounds for treatment of inflammation include those that have an inhibitory effect.
Assays comprise endothelial cells that are stimulated in an inflammatory response by the presence of the glycated protein, glycated human serum albumin. Such endothelial cells produce cytokines. A method in accordance with the present invention comprises measurement of the amount of the cytokine IL-6, and another aspect of the present invention comprises measurement of the amount of the cytokine MCP-1. Preferably, although not required, the amount of cytokine produced is determined using immunological methods, such as ELISA assays. The methods of the present invention are not limited by the type of assay used to measure the amount of cytokine produced, and any methods known to those skilled in the art and later developed can be used to measure the amount of cytokines produced in response to the stimulating agent and to the compound having unknown activity.
Glycated albumin stimulates endothelial production of IL-6 and MCP-1. […] Because of the well established role of these cytokines in vascular diseases, screening for compounds that block AGE-induction of these cytokines provides a novel approach for identifying therapeutic agents that block AGE-induced inflammation in vivo.
Once the baseline response to the stimulating agent for the production of cytokines by the endothelial cells is established, thus comprising the control levels for the screening assay, the methods comprise addition of compounds having unknown activities. The effect of the compound on the baseline response is determined by comparing the amount of cytokine produced in the presence of the stimulating agent and the amount of cytokine produced in the presence of the stimulating agent and the compound of the present invention. In one method, compounds that have inhibitory effects on the inflammation of the cells in the presence of glycated albumin are then used as therapeutic agents. One or more compounds may be added to the screening assay. Combinations or mixtures of compounds can be added. Different amounts and formulations of the compounds are added to determine the effects on the screening assay. The screening assay also may be used to determine stimulatory compounds or compounds that have no effects in the assay.

Structure (SMILES): C/C(=C1\SC(=O)NC1=O)c1ccc(OCCOc2c(-c3ccc(Cl)cc3)n(C)c3ccccc3c2=O)cc1
inhibition at 5 µM (IL-6; concentration 5 μM): 49%

Structure (SMILES): Cn1c(-c2ccc(Br)cc2)c(OCCOc2ccc(/C=C3/SC(=O)NC3=O)cc2)c(=O)c2ccccc21
inhibition at 5 µM (MCP-1): 44%

Structure (SMILES): C/C(=C1\SC(=O)NC1=O)c1ccc(OCCOc2c(-c3ccc(F)c(F)c3)n(C)c3ccccc3c2=O)cc1
inhibition at 4.4 µM (MCP-1; concentration 4.4 μM): 50%

Structure (SMILES): C/C(=C1/SC(=O)NC1=O)c1ccc(OCCOc2c(-c3ccc(F)c(F)c3)n(C)c3ccccc3c2=O)c(Cl)c1
inhibition at 5 µM (MCP-1): 61%

Structure (SMILES): CCn1c(-c2ccc(F)cc2)c(OCCOc2ccc(/C(C)=C3/SC(=O)NC3=O)cc2)c(=O)c2ccccc21
inhibition at 6.5 µM (MCP-1; concentration 6.5 μM): 50%

Structure (SMILES): C/C(=C1\SC(=O)NC1=O)c1ccc(OCCOc2c(-c3ccc(F)c(F)c3)n(C)c3ccccc3c2=O)c(F)c1
inhibition at 7 µM (MCP-1; concentration 7 μM): 50%

melting point: 205 to 206 °C
Structure (SMILES): COc1cc(OC)c2c(=O)c(OCCOc3ccc(/C(C)=C4\SC(=O)NC4=O)cc3)c(-c3ccc(OC)c(OC)c3)oc2c1 [Example 1, 5-[-1-(4-{2-[2-(3,4-Dimethoxyphenyl)-5,7-dimethoxy-4-oxo-4h-3-chromenyloxy]ethoxy}phenyl)ethylidene]-1,3-thiazolane-2,4-dione]

melting point: 215 to 218 °C
Structure (SMILES): CCCc1nn(C)c2c(=O)n(CCNc3ccc(/C(C)=C4\SC(=O)NC4=O)cc3)c(-c3ccc(OC)c(OC)c3)nc12 [Example 46, 5-[(E,Z)-1-(4-{2-[5-(3,4-Dimethoxyphenyl)-1-methyl-7-oxo-3-propyl-6,7-dihydro-1H-pyrazolo[4,3-d]pyrimidin-6-yl]ethylamino}phenyl)ethylidene]1,3-thiazolane-2,4-dione]

Structure (SMILES): C/C(=C1\SC(=O)NC1=O)c1ccc(OCCOc2c(-c3ccc(F)cc3)n(C)c3ccccc3c2=O)cc1 [drawing 117]
inhibition at 4.64 µM (IL-6; concentration 4.64 μM): 50%

Structure (SMILES): C/C(=C1\SC(=O)NC1=O)c1ccc(OCCOc2c(-c3ccc(F)cc3)n(C)c3ccccc3c2=O)cc1 [drawing 118]
inhibition at 7.9 µM (MCP-1; concentration 7.9 μM): 50%
